Like-named read-outs stand apart in the source and are kept apart here.
Target: T1, canine TRPM8 (Canis lupus familiaris, UniProt Q1A7N1)
T1 construct: expressed in transfected cells
Assay: In vitro canine TRPM8 functional assay (icilin-induced intracellular Ca2+ increase, FLIPR/FDSS)
Type: cell-based
Settings: for % Inh @ 0.2 μM / inhibition at 0.2 µM: 0.2 μM compound, HEK293 canine TRPM8; for % Inh @ 1 μM / inhibition at 1 µM: 1 μM compound, samples diluted from 10 mM stock with 100% DMSO; for IC50: read-out: IC50
Protocol: The functional activity of representative compounds of the formula (I) of the present invention was quantified by measuring changes in intracellular calcium concentration using a Ca^2+-sensitive fluorescent dye. The changes in fluorescent signal were monitored by a fluorescence plate reader, either a FLIPR™ (Molecular Devices) or FDSS (Hamamatsu).
HEK293 cells stably expressing canine TRPM8 were routinely grown as monolayers in Dulbecco's minimum essential medium supplemented with 10% FBS, 2 mM L-glutamine, 100 units/mL penicillin, 100 ug/mL streptomycin and 400 μg/mL G418. Cells were maintained in 5% CO2 at 37° C. At 24 hr prior to assay, cells were seeded in black wall, clear-base poly-D-lysine coated 384-well plates (BD Biosciences, N.J., USA) at a density of 5,000 cells per well in culture medium and grown overnight in 5% CO2 at 37° C. On assay day, growth media was removed, and cells were loaded with Calcium 3 Dye (Molecular Devices) for 35 min at 37° C., under 5% CO2 and then incubated for 25 min at room temperature and atmosphere. Subsequently, cells were tested for agonist-induced increases in intracellular Ca^2+ levels using FLIPR™ or FDSS. Cells were treated with compounds of the formula (I) at varying concentrations and intracellular Ca^2+ was measured for 5 min prior to the addition of icilin to all wells to achieve a final concentration that produces approximately an 80% maximal response.
Basal FI was subtracted prior to normalizing data to percent of maximal response. Curves were generated using the average of quadruplicate wells for each data point using nonlinear regression of either sigmoidal dose response or sigmoidal dose response (variable slope). Finally, the EC50 and IC50 values were calculated with the best-fit curve determined by GraphPad Prism
Test samples were prepared by diluting a 10 mM stock solution of test compound with 100% DMSO prior to addition to assay buffer.

[1] = re-test, samples diluted from 10 mM stock with 100% DMSO before addition to assay buffer, Table 7
[2] = HEK293 cells stably expressing canine TRPM8, icilin at ~80% maximal response, Table 6

T1 sequence (Q1A7N1 1-1104): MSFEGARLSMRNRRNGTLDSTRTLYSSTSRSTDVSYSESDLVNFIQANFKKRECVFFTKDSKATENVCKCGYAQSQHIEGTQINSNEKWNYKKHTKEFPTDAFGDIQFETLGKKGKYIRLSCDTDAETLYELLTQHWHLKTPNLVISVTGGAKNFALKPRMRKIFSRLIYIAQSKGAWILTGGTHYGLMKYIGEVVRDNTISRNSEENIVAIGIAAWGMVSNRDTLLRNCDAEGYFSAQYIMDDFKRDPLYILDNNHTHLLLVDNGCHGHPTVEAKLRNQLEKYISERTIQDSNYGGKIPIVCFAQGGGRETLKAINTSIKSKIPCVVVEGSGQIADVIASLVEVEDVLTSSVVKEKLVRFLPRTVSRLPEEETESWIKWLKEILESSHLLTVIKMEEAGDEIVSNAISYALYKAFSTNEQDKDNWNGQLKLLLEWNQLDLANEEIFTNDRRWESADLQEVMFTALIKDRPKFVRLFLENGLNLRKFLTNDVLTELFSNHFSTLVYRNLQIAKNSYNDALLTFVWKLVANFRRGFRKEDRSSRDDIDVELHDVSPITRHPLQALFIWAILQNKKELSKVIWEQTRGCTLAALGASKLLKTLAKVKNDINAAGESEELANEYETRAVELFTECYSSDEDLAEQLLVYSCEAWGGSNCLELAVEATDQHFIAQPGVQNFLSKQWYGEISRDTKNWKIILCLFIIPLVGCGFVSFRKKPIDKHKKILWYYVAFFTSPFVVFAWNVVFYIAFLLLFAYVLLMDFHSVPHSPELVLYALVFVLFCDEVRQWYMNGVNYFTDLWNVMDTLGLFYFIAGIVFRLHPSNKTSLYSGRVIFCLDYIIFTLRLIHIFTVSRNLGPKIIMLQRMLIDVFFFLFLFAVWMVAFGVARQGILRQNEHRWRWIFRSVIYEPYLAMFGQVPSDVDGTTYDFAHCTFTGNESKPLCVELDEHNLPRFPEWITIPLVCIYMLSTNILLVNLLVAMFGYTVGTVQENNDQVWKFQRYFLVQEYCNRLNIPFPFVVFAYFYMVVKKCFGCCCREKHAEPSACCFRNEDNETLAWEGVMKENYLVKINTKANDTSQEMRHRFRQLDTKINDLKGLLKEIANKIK

Row | SMILES | % Inh @ 0.2 μM (Table 6) [%] | inhibition at 0.2 µM (Table 6) [%] | also measured
1 | Cn1c(=NS(=O)(=O)c2ccccc2)n(Cc2ccc(F)c(C(F)(F)F)c2)c2ccccc21 [Compound 1] | 40 | – | –
2 | Cn1c(=NS(=O)(=O)c2ccccc2)n(Cc2ccc(OC(F)(F)F)cc2)c2ccccc21 [Compound 2] | 34 | – | –
3 | Cn1c(=NS(=O)(=O)c2ccccc2)n(Cc2ccccc2)c2ccccc21 [Compound 3] | 8 | – | % Inh @ 1 μM (re-test, Table 7): 40%
4 | Cn1/c(=N/S(=O)(=O)c2ccccc2)n(Cc2cccc(C(F)(F)F)c2)c2ccccc21 [Compound 4, N-[1-Methyl-3-(3-trifluoromethyl-benzyl)-1,3-dihydro-benzimidazol-2-ylidene]-benzenesulfonamide] | – | 42 | –
5 | Cn1c(=NS(=O)(=O)c2ccccc2)n(Cc2cccc(OC(F)(F)F)c2)c2ccccc21 [Compound 5] | 50 | – | –
6 | Cn1c(=NS(=O)(=O)c2ccccc2)n(Cc2ccc(C(F)(F)F)cc2)c2ccccc21 [Compound 6] | 2 | – | % Inh @ 1 μM (re-test, Table 7): 65%
7 | Cn1c(=NS(=O)(=O)c2ccccc2)n(Cc2ccc(F)c(F)c2)c2ccccc21 [Compound 7] | 24 | – | –
8 | Cn1c(=NS(=O)(=O)c2ccccc2)n(Cc2ccc(F)cc2)c2ccccc21 [Compound 8] | 20 | – | –
9 | Cn1c(=NS(=O)(=O)c2ccccc2)n(Cc2cc(C(F)(F)F)ccc2F)c2ccccc21 [Compound 9] | 39 | – | –
10 | Cn1c(=NS(=O)(=O)c2ccccc2)n(Cc2ccc(C(F)(F)F)c(F)c2)c2ccccc21 [Compound 10] | 22 | – | –
11 | Cn1c(=NS(=O)(=O)c2ccccc2)n(Cc2ccc(F)c(Cl)c2)c2ccccc21 [Compound 11] | 38 | – | –
12 | Cn1c(=NS(=O)(=O)c2ccccc2)n(Cc2ccc(SC(F)(F)F)cc2)c2ccccc21 [Compound 12] | 11 | – | –
13 | Cn1c(=NS(=O)(=O)c2ccccc2)n(Cc2ccc(OC(F)F)cc2)c2ccccc21 [Compound 13] | – | 9 | inhibition at 1 µM (re-test, Table 7): 55%; IC50 [1]: 0.764 µM
14 | CCn1c(=NS(=O)(=O)c2ccccc2)n(Cc2ccc(OC(F)(F)F)cc2)c2ccccc21 [Compound 14] | 75 | – | IC50 [2]: 0.1 µM
15 | CCn1c(=NS(=O)(=O)c2ccccc2)n(Cc2ccc(C(F)(F)F)cc2)c2ccccc21 [Compound 15] | 85 | – | IC50 [2]: 0.069 µM
16 | Cn1c(=NS(=O)(=O)c2ccc(F)cc2)n(Cc2ccc(C(F)(F)F)cc2)c2ccccc21 [Compound 16] | 1 | – | % Inh @ 1 μM (re-test, Table 7): 57%
17 | Cn1c(=NS(=O)(=O)c2ccc(F)cc2)n(Cc2ccc(OC(F)(F)F)cc2)c2ccccc21 [Compound 17] | – | 6 | inhibition at 1 µM (re-test, Table 7): 60%; IC50 [1]: 0.606 µM
18 | Cn1c(=NS(=O)(=O)c2ccc(C(F)(F)F)cc2)n(Cc2ccc(OC(F)(F)F)cc2)c2ccccc21 [Compound 18] | – | 1 | inhibition at 1 µM (re-test, Table 7): 57%; IC50 [1]: 0.635 µM
19 | Cn1c(=NS(=O)(=O)c2ccc(Cl)cc2)n(Cc2ccc(C(F)(F)F)cc2)c2ccccc21 [Compound 19] | 13 | – | –
20 | Cn1c(=NS(=O)(=O)c2ccc(Cl)cc2)n(Cc2ccc(OC(F)(F)F)cc2)c2ccccc21 [Compound 20] | – | 2 | inhibition at 1 µM (re-test, Table 7): 74%; IC50 [1]: 0.43 µM
21 | Cn1c(=NS(=O)(=O)c2ccc(C(F)(F)F)cc2)n(Cc2ccc(C(F)(F)F)cc2)c2ccccc21 [Compound 21] | – | 8 | inhibition at 1 µM (re-test, Table 7): 59%; IC50 [1]: 0.588 µM

Row | SMILES | % Inh @ 0.2 μM (Table 6) [%] | inhibition at 0.2 µM (Table 6) [%] | also measured
22 | Cn1c(=NS(=O)(=O)c2ccc(Cl)cc2)n(Cc2ccc(C(F)(F)F)c(F)c2)c2ccccc21 [Compound 22] | 6 | – | % Inh @ 1 μM (re-test, Table 7): 77%; IC50 [1]: 0.512 µM
23 | Cn1c(=NS(=O)(=O)c2ccc(C(F)(F)F)cc2)n(Cc2ccc(C(F)(F)F)c(F)c2)c2ccccc21 [Compound 23] | – | 3 | inhibition at 1 µM (re-test, Table 7): 59%; IC50 [1]: 0.764 µM
24 | Cn1c(=NS(=O)(=O)c2ccc(F)cc2)n(Cc2ccc(C(F)(F)F)c(F)c2)c2ccccc21 [Compound 24] | 3 | – | % Inh @ 1 μM (re-test, Table 7): 85%; IC50 [1]: 0.379 µM
25 | CCn1c(=NS(=O)(=O)c2ccccc2)n(Cc2ccc(C(F)(F)F)c(F)c2)c2ccccc21 [Compound 25] | 62 | – | –
26 | CC(C)Cn1c(=NS(=O)(=O)c2ccccc2)n(Cc2ccc(C(F)(F)F)c(F)c2)c2ccccc21 [Compound 26] | – | 100 | IC50 [2]: 0.014 µM
27 | CC(C)Cn1c(=NS(=O)(=O)c2ccccc2)n(Cc2ccc(C(F)(F)F)cc2)c2ccccc21 [Compound 27] | 71 | – | IC50 [2]: 0.043 µM
28 | CC(C)Cn1c(=NS(=O)(=O)c2ccccc2)n(Cc2ccc(OC(F)(F)F)cc2)c2ccccc21 [Compound 28] | – | 70 | IC50 [2]: 0.058 µM
29 | Cn1c(=NS(=O)(=O)c2ccccc2)n(Cc2ccc(C(F)(F)F)cc2)c2cc(C(F)(F)F)ccc21 [Compound 29] | 19 | – | –
30 | Cn1c(=NS(=O)(=O)c2ccccc2)n(Cc2ccc(OC(F)(F)F)cc2)c2cc(C(F)(F)F)ccc21 [Compound 30] | 17 | – | –
31 | Cn1c(=NS(=O)(=O)c2ccccc2)n(Cc2ccc(C(F)(F)F)c(F)c2)c2cc(C(F)(F)F)ccc21 [Compound 31] | – | 71 | IC50 [2]: 0.039 µM
32 | CCn1c(=NS(=O)(=O)c2ccccc2)n(Cc2ccc(C(F)(F)F)c(F)c2)c2cc(F)ccc21 [Compound 33] | 70 | – | –
33 | CC(C)n1c(=NS(=O)(=O)c2ccccc2)n(Cc2ccc(OC(F)(F)F)cc2)c2cc(C(F)(F)F)ccc21 [Compound 34] | – | 95 | IC50 [2]: 0.024 µM
34 | CC(C)n1c(=NS(=O)(=O)c2ccccc2)n(Cc2ccc(C(F)(F)F)c(F)c2)c2cc(C(F)(F)F)ccc21 [Compound 35] | 100 | – | IC50 [2]: 0.01 µM
35 | CCn1c(=NS(=O)(=O)c2ccccc2)n(Cc2ccc(OC(F)(F)F)cc2)c2cc(F)ccc21 [Compound 36] | 36 | – | –
36 | Cn1c(=NS(=O)(=O)c2ccccc2)n(Cc2ccc(C(F)(F)F)cc2)c2cc(F)ccc21 [Compound 38] | 1 | – | % Inh @ 1 μM (re-test, Table 7): 24%
37 | CCn1/c(=N/S(=O)(=O)c2ccccc2)n(Cc2ccc(C(F)(F)F)cc2)c2cc(F)ccc21 [Compound 39, N-[1-Ethyl-5-fluoro-3-(4-trifluoromethyl-benzyl)-1,3-dihydro-benzimidazol-2-ylidene]-benzenesulfonamide] | – | 26 | –
38 | O=S(=O)(N=c1n(Cc2ccc(C(F)(F)F)cc2)c2ccccc2n1CC(F)(F)F)c1ccccc1 [Compound 40] | – | 9 | inhibition at 1 µM (re-test, Table 7): 57%; IC50 [1]: 0.426 µM
39 | Cn1c(=NS(=O)(=O)c2ccccc2)n(Cc2ccc(C(F)(F)F)c(F)c2)c2cc(F)ccc21 [Compound 41] | 6 | – | % Inh @ 1 μM (re-test, Table 7): 79%
40 | CC(C)n1c(=NS(=O)(=O)c2ccccc2)n(Cc2ccc(C(F)(F)F)c(F)c2)c2cc(Cl)ccc21 [Compound 42] | – | 95 | IC50 [2]: 0.026 µM
41 | O=S(=O)(/N=c1\n(Cc2ccc(C(F)(F)F)c(F)c2)c2ccccc2n1CC(F)(F)F)c1ccccc1 [Compound 43, N-[1-(3-Fluoro-4-trifluoromethyl-benzyl)-3-(2,2,2-trifluoro-ethyl)-1,3-dihydro-benzimidazol-2-ylidene]-benzenesulfonamide] | – | 89 | IC50 [2]: 0.021 µM
42 | O=S(=O)(N=c1n(Cc2ccc(OC(F)(F)F)cc2)c2ccccc2n1CC(F)(F)F)c1ccccc1 [Compound 44] | 37 | – | –
